Assays:
CFTR [1] = molecular target: T1, CFTR (Homo sapiens, UniProt P13569); assay: Membrane Potential Dye, Enteroid Assay A; assay type: cell-based; details: for EC50: read-out: Ent. A EC50
Experimental: Base medium (ADF+++) consisted of Advanced […], 2 mM Glutamax, 10 mM HEPES, 1 μg/mL penicillin/streptomycin.
Intestinal enteroid maintenance medium (IEMMN) consisted of ADF+++, 1× B27 supplement, 1× N2 supplement, 1.25 mM N-acetyl cysteine, 10 mM Nicotinamide, 50 ng/mL hEGF, 10 nM Gastrin, 1 μg/mL hR-spondin-1, 100 ng/mL hNoggin, TGF-b type 1 inhibitor A-83-01, 100 μg/mL Primocin, 10 μM P38 MAPK inhibitor SB202190.
Bath 1 Buffer consisted of 1 mM MgCl2, 160 mM NaCl, 4.5 mM KCl, 10 mM HEPES, 10 mM Glucose, 2 mM CaCl2).
Chloride Free Buffer consisted of 1 mM Magnesium Gluconate, 2 mM Calcium Gluconate, 4.5 mM Potassium Gluconate, 160 mM Sodium Gluconate, 10 mM HEPES, 10 mM Glucose.
Bath 1 Dye Solution consisted of Bath 1 Buffer, 0.04% Pluronic F127, 20 μM Methyl Oxonol, 30 μM CaCCinh-A01, 30 μM Chicago Sky Blue.
Chloride Free Dye Solution consisted of Chloride Free Buffer, 0.04% Pluronic F127, 20 μM Methyl Oxonol, 30 μM CaCCinh-A01, 30 μM Chicago Sky Blue.
Chloride Free Dye Stimulation Solution consisted of Chloride Free Dye Solution, 10 μM forskolin, 100 μM IBMX, and 300 nM Compound III.
Human intestinal epithelial enteroid cells were obtained from the Hubrecht Institute for Developmental Biology and Stem Cell Research, Utrecht, The Netherlands and expanded in T-Flasks as previously described (Dekkers J F, Wiegerinck C L, de Jonge H R, Bronsveld I, Janssens H M, de Winter-de Groot K M, Brandsma A M, de Jong N W M, Bijvelds M J C, Scholte B J, Nieuwenhuis E E S, van den Brink S, Clevers H, van der Ent C K, Middendorp S and M Beekman J M. A functional CFTR assay using primary cystic fibrosis intestinal organoids. Nat Med. 2013 July; 19(7):939-45.).
3. Enteroid Cell Harvesting and Seeding
Cells were recovered in cell recovery solution, collected by centrifugation at 650 rpm for 5 min at 4° C., resuspended in TrypLE and incubated for 5 min at 37° C. Cells were then collected by centrifugation at 650 rpm for 5 min at 4° C. and resuspended in IEMM containing 10 μM ROCK inhibitor (RI). The cell suspension was passed through a 40 μm cell strainer and resuspended at 1×10^6 cells/mL in IEMM containing 10 μM RI. Cells were seeded at 5000 cells/well into multi-well plates and incubated for overnight at 37° C., 95% humidity and 5% CO2 prior to assay.
4. Membrane Potential Dye, Enteroid Assay A
Enteroid cells were incubated with test compound in IEMM for 18-24 hours at 37° C., 95% humidity and 5% CO2. […] Briefly, cells were washed 5 times in Bath 1 Buffer. Bath 1 Dye Solution was added, and the cells were incubated for 25 min at room temperature. Following dye incubation, cells were washed 3 times in Chloride Free Dye Solution. Chloride transport was initiated by addition of Chloride Free Dye Stimulation Solution and the fluorescence signal was read for 15 min. […] Chloride transport was then expressed as a percentage of the chloride transport following treatment with 3 μM N-[(6-amino-2-pyridyl)sulfonyl]-6-(3-fluoro-5-isobutoxy-phenyl)-2-[(4S)-2,2,4-trimethylpyrrolidin-1-yl]pyridine-3-carboxamide, 3 μM (R)-1-(2,2-difluorobenzo[d][1,3]dioxol-5-yl)-N-(1-(2,3-dihydroxypropyl)-6-fluoro-2-(1-hydroxy-2-methylpropan-2-yl)-1H-indol-5-yl)cyclopropanecarboxamide and 300 nM acute N-[2,4-bis(1,1-dimethylethyl)-5-hydroxyphenyl]-1,4-dihydro-4-oxoquinoline-3-carboxamide triple combination control (% Activity).

CFTR [2] = molecular target: T1, CFTR; assay: Membrane Potential Dye, Enteroid Assay B; assay type: cell-based; details: for EC50: read-out: Ent. B EC50
In short: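 Activity given as % of a triple-combination reference (1 μM and 3 μM correctors, 300 nM acute potentiator). Enteroids were preincubated 18-24 h with compound; chloride efflux then measured 15 min by methyl oxonol fluorescence after forskolin/IBMX/Compound III stimulation in chloride-free buffer containing CaCCinh-A01 and Chicago Sky Blue.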

T1 sequence (P13569 with tags, fused parts or gaps DEL508-508): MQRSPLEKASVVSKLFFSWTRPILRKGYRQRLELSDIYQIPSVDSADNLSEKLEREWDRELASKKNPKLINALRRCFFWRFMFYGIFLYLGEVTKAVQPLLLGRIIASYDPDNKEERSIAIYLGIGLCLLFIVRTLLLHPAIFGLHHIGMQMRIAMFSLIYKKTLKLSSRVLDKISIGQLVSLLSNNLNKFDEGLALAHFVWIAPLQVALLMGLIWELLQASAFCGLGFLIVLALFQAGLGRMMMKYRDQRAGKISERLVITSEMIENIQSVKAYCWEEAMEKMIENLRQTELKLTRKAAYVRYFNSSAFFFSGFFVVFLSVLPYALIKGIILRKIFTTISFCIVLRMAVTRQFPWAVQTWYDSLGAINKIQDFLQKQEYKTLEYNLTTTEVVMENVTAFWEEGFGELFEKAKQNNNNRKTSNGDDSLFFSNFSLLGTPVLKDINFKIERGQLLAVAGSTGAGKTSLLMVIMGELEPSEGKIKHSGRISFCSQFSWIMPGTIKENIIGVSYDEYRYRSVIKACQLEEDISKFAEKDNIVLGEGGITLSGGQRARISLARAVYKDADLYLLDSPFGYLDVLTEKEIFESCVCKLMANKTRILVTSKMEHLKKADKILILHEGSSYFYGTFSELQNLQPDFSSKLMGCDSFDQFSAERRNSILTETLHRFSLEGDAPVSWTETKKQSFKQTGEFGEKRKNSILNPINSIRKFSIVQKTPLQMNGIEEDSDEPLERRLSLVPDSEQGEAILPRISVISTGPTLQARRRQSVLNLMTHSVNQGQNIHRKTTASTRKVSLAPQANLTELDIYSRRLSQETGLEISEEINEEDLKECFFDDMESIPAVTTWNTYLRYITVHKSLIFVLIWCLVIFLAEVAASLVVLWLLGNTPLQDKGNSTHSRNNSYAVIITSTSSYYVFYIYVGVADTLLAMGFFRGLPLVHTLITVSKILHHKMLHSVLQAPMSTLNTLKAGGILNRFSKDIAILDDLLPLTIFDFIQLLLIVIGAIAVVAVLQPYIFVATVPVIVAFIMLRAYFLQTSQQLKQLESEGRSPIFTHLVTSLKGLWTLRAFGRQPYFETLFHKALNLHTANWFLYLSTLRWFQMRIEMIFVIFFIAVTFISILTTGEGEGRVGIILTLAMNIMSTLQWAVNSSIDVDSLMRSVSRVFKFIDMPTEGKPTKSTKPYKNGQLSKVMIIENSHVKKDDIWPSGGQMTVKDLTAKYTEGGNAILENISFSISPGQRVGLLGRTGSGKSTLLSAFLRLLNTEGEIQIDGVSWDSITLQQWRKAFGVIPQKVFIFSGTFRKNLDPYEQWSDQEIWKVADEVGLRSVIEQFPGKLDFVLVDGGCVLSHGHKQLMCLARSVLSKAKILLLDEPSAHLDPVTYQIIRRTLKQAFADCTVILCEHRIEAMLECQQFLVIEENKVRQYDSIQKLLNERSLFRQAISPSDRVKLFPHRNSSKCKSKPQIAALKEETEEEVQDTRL

Structure (SMILES) | Ent. A Max Activity (%) (CFTR [1]) | EC50 (CFTR [1]) [nM] | Ent. B Max Activity (%) (CFTR [2]) | EC50 (CFTR [2]) [nM]
CNC(=O)[C@H]1CC2(C1)C[C@H](N1C(=O)c3cccc(c3)S(=O)(=O)Nc3nc(cc(-c4c(C)cccc4C)n3)OC[C@H]1CC(C)C)C2 (stereo in doubt) [Compound 346] | +++ (+++ is >60%) | < 1000 | +++ (+++ is >60%) | < 1000
Cc1cccc(C)c1-c1cc2nc(n1)NS(=O)(=O)c1cccc(c1)C(=O)N([C@H]1C[C@@H](C#N)C1)[C@H](CC(C)C)CO2 (stereo in doubt) [Compound 469] | +++ (+++ is >60%) | < 1000 | +++ (+++ is >60%) | < 1000
Cc1cccc(C)c1-c1cc2nc(n1)NS(=O)(=O)c1cccc(c1)C(=O)N(C1CC3(CCNCC3)C1)[C@H](CC(C)C)CO2 [Compound 14, (11R)-12-(7-Azaspiro[3.5]nonan-2-yl)-6-(2,6-dimethylphenyl)-11-isobutyl-2,2-dioxo-9-oxa-2λ^6-thia-3,5,12,19-tetrazatricyclo[12.3.1.14,8]nonadeca-1(18),4(19),5,7,14,16-hexaen-13-one] | +++ (+++ is >60%) | 3000 to 30000 | +++ (+++ is >60%) | < 1000
Cc1cccc(C)c1-c1cc2nc(n1)NS(=O)(=O)c1cccc(c1)C(=O)N(C1CC3(CCN(C)CC3)C1)[C@H](CC(C)C)CO2 [Compound 15, (11R)-6-(2,6-Dimethylphenyl)-11-isobutyl-12-(7-methyl-7-azaspiro[3.5]nonan-2-yl)-2,2-dioxo-9-oxa-2λ^6-thia-3,5,12,19-tetrazatricyclo[12.3.1.14,8]nonadeca-1(18),4(19),5,7,14,16-hexaen-13-one] | +++ (+++ is >60%) | < 1000 | +++ (+++ is >60%) | < 1000
CC(=O)N1CCC2(CC1)CC(N1C(=O)c3cccc(c3)S(=O)(=O)Nc3nc(cc(-c4c(C)cccc4C)n3)OC[C@H]1CC(C)C)C2 [Compound 16, (11R)-12-(7-Acetyl-7-azaspiro[3.5]nonan-2-yl)-6-(2,6-dimethylphenyl)-11-isobutyl-2,2-dioxo-9-oxa-2λ^6-thia-3,5,12,19-tetrazatricyclo[12.3.1.14,8]nonadeca-1(18),4(19),5,7,14,16-hexaen-13-one] | +++ (+++ is >60%) | < 1000 | +++ (+++ is >60%) | < 1000
COC(=O)N1CCC2(CC1)CC(N1C(=O)c3cccc(c3)S(=O)(=O)Nc3nc(cc(-c4c(C)cccc4C)n3)OC[C@H]1CC(C)C)C2 [Compound 19, methyl 2-[(11R)-6-(2,6-dimethylphenyl)-11-isobutyl-2,2,13-trioxo-9-oxa-2λ^6-thia-3,5,12,19-tetrazatricyclo[12.3.1.14,8]nonadeca-1(18),4(19),5,7,14,16-hexaen-12-yl]-7-azaspiro[3.5]nonane-7-carboxylate] | +++ (+++ is >60%) | < 1000 | +++ (+++ is >60%) | < 1000
Cc1cccc(C)c1-c1cc2nc(n1)NS(=O)(=O)c1cccc(c1)C(=O)N(C1CC3(CCN(CCC(F)(F)F)CC3)C1)[C@H](CC(C)C)CO2 [Compound 20, (11R)-6-(2,6-Dimethylphenyl)-11-isobutyl-2,2-dioxo-12-[7-(3,3,3-trifluoropropyl)-7-azaspiro[3.5]nonan-2-yl]-9-oxa-2λ^6-thia-3,5,12,19-tetrazatricyclo[12.3.1.14,8]nonadeca-1(18),4(19),5,7,14,16-hexaen-13-one] | +++ (+++ is >60%) | < 1000 | +++ (+++ is >60%) | < 1000
CC(=O)N1C[C@H]2C[C@H](N3C(=O)c4cccc(c4)S(=O)(=O)Nc4nc(cc(-c5c(C)cccc5C)n4)OC[C@H]3CC(C)C)C[C@H]2C1 [Compound 336] | ++ (++ is 30-60%) | < 1000 |  | 
Cc1cccc(C)c1-c1cc2nc(n1)NS(=O)(=O)c1cccc(c1)C(=O)N(C1CC3(CCCCC3)C1)[C@H](CC(C)C)CO2 [Compound 338] | ++ (++ is 30-60%) | < 1000 |  | 
Cc1cccc(C)c1-c1cc2nc(n1)NS(=O)(=O)c1cccc(c1)C(=O)N(C1CC3(CCCC3)C1)[C@H](CC(C)C)CO2 [Compound 339] | +++ (+++ is >60%) | < 1000 |  | 
Cc1cccc(C)c1-c1cc2nc(n1)NS(=O)(=O)c1cccc(c1)C(=O)N(C1CC3(CCN(CCC(C)(C)C)CC3)C1)[C@H](CC(C)C)CO2 [Compound 340] | +++ (+++ is >60%) | < 1000 |  | 
Cc1cccc(C)c1-c1cc2nc(n1)NS(=O)(=O)c1cccc(c1)C(=O)N(C1CC3(CCN(C[C@H](O)CO)CC3)C1)[C@H](CC(C)C)CO2 [Compound 341] | +++ (+++ is >60%) | < 1000 |  | 
Cc1cccc(C)c1-c1cc2nc(n1)NS(=O)(=O)c1cccc(c1)C(=O)N([C@H]1CC3(C[C@H](C(=O)N(C)C)C3)C1)[C@H](CC(C)C)CO2 (stereo partly drawn) [Compound 342] | +++ (+++ is >60%) | < 1000 |  | 
Cc1cccc(C)c1-c1cc2nc(n1)NS(=O)(=O)c1cccc(c1)C(=O)N(C1CCC(C)(C)C1)[C@H](CC(C)C)CO2 (stereo partly drawn) [Compound 348] | +++ (+++ is >60%) | < 1000 |  | 
Cc1cccc(C)c1-c1cc2nc(n1)NS(=O)(=O)c1cccc(c1)C(=O)N(C1CC3(CC3)C1)[C@@H](CC1(C(F)(F)F)CC1)CO2 [Compound 351] | + (+ is <300%) | < 1000 |  | 
COC(=O)N1CCC2(CC1)CC(N1C(=O)c3cccc(c3)S(=O)(=O)Nc3nc(cc(C4CCCCC4(C)C)n3)OC[C@H]1CC(C)C)C2 (stereo partly drawn) [Compound 395] | ++ (++ is 30-60%) | < 1000 |  | 
COC(=O)N1CCC2(CC1)CC(N1C(=O)c3cccc(c3)S(=O)(=O)Nc3nc(cc(C4CCCCC4(C)C)n3)OC[C@H]1CC(C)C)C2 (stereo partly drawn) [Compound 396] | ++ (++ is 30-60%) | < 1000 |  | 
CC(C)C[C@@H]1COc2cc(C3CCCCC3(C)C)nc(n2)NS(=O)(=O)c2cccc(c2)C(=O)N1C1CC2(CCNCC2)C1 (stereo partly drawn) [Compound 399] | +++ (+++ is >60%) | < 1000 |  | 
CC(C)C[C@@H]1COc2cc(C3CCCCC3(C)C)nc(n2)NS(=O)(=O)c2cccc(c2)C(=O)N1C1CC2(CCN(C(=O)OC(C)(C)C)CC2)C1 (stereo partly drawn) [Compound 400] | ++ (++ is 30-60%) | < 1000 |  | 
Cc1cccc(C)c1-c1cc2nc(n1)NS(=O)(=O)c1cccc(c1)C(=O)N(C1CCN(C)CC1)CCO2 [Compound 438] | + (+ is <300%) |  |  | 
Cc1cccc(C)c1-c1cc2nc(n1)NS(=O)(=O)c1cccc(c1)C(=O)N(C1CCOCC1)CCO2 [Compound 439] | +++ (+++ is >60%) | 3000 to 30000 |  | 
CC(C)C[C@@H]1COc2cc(-c3ccccc3-c3ccccc3)nc(n2)NS(=O)(=O)c2cccc(c2)C(=O)N1C1CC2(CCN(C)CC2)C1 [Compound 471] | +++ (+++ is >60%) | < 1000 |  | 

— patent publication US20230382925A1, “MODULATORS OF CYSTIC FIBROSIS TRANSMEMBRANE CONDUCTANCE REGULATOR” (VERTEX PHARMACEUTICALS INCORPORATED, priority 2020, published 2023)
